In ChEMBL document CHEMBL1795320, “Synthesis and antibacterial activity of novel 4″-O-benzimidazolyl clarithromycin derivatives” (2011):
In brackets after ≈: the same amount, converted by molar mass.

Key:
Assay type in all cases: functional
Staphylococcus aureus = experiment: Antibacterial activity against erythromycin-susceptible Staphylococcus aureus ATCC 25923 by broth microdilution method
Streptococcus pneumoniae [1] = experiment: Antibacterial activity against erythromycin-susceptible Streptococcus pneumoniae ATCC 49619 by broth microdilution method
Streptococcus pneumoniae [2] = experiment: Antibacterial activity against erythromycin-resistant Streptococcus pneumoniae A22072 expressing mef gene by broth microdilution method
Streptococcus pneumoniae [3] = experiment: Antibacterial activity against erythromycin-resistant Streptococcus pneumoniae B1 expressing erm gene by broth microdilution method
Streptococcus pneumoniae [4] = experiment: Antibacterial activity against erythromycin-resistant Streptococcus pneumoniae AB11 expressing erm and mef gene by broth microdilution method

Row | SMILES | MIC (Staphylococcus aureus) | MIC (Streptococcus pneumoniae [1]) | MIC (Streptococcus pneumoniae [2]) | MIC (Streptococcus pneumoniae [3]) | MIC (Streptococcus pneumoniae [4])
1 | CC[C@H]1OC(=O)[C@H](C)[C@@H](O[C@H]2C[C@@](C)(OC)[C@@H](OC(=O)NNC(=O)c3ccc4[nH]c(-c5ccc(C(F)(F)F)cc5)nc4c3)[C@H](C)O2)[C@H](C)[C@@H](O[C@@H]2O[C@H](C)C[C@H](N(C)C)[C@H]2O)[C@](C)(OC)C[C@@H](C)C(=O)[C@H](C)[C@@H](O)[C@]1(C)O | 0.5 µg/mL (≈ 0.457 µM) | 0.25 µg/mL (≈ 0.228 µM) | 0.06 µg/mL (≈ 0.0548 µM) | 8 µg/mL (≈ 7.31 µM) | 8 µg/mL (≈ 7.31 µM)
2 | CC[C@H]1OC(=O)[C@H](C)[C@@H](O[C@H]2C[C@@](C)(OC)[C@@H](OC(=O)NNC(=O)c3ccc4[nH]c(-c5ccc(Br)cc5)nc4c3)[C@H](C)O2)[C@H](C)[C@@H](O[C@@H]2O[C@H](C)C[C@H](N(C)C)[C@H]2O)[C@](C)(OC)C[C@@H](C)C(=O)[C@H](C)[C@@H](O)[C@]1(C)O | 1 µg/mL (≈ 0.905 µM) | 0.25 µg/mL (≈ 0.226 µM) | 0.06 µg/mL (≈ 0.0543 µM) | 16 µg/mL (≈ 14.5 µM) | 16 µg/mL (≈ 14.5 µM)
3 | CC[C@H]1OC(=O)[C@H](C)[C@@H](O[C@H]2C[C@@](C)(OC)[C@@H](OC(=O)NNC(=O)c3ccc4[nH]cnc4c3)[C@H](C)O2)[C@H](C)[C@@H](O[C@@H]2O[C@H](C)C[C@H](N(C)C)[C@H]2O)[C@](C)(OC)C[C@@H](C)C(=O)[C@H](C)[C@@H](O)[C@]1(C)O | 0.5 µg/mL (≈ 0.526 µM) | 0.12 µg/mL (≈ 0.126 µM) | 1 µg/mL (≈ 1.05 µM) | 32 µg/mL (≈ 33.7 µM) | 32 µg/mL (≈ 33.7 µM)
4 | CC[C@H]1OC(=O)[C@H](C)[C@@H](O[C@H]2C[C@@](C)(OC)[C@@H](OC(=O)NNC(=O)c3ccc4[nH]c(C)nc4c3)[C@H](C)O2)[C@H](C)[C@@H](O[C@@H]2O[C@H](C)C[C@H](N(C)C)[C@H]2O)[C@](C)(OC)C[C@@H](C)C(=O)[C@H](C)[C@@H](O)[C@]1(C)O | 0.5 µg/mL (≈ 0.519 µM) | 0.12 µg/mL (≈ 0.124 µM) | 1 µg/mL (≈ 1.04 µM) | 8 µg/mL (≈ 8.3 µM) | 64 µg/mL (≈ 66.4 µM)
5 | CC[C@H]1OC(=O)[C@H](C)[C@@H](O[C@H]2C[C@@](C)(OC)[C@@H](OC(=O)NNC(=O)c3ccc4[nH]c(C(F)(F)F)nc4c3)[C@H](C)O2)[C@H](C)[C@@H](O[C@@H]2O[C@H](C)C[C@H](N(C)C)[C@H]2O)[C@](C)(OC)C[C@@H](C)C(=O)[C@H](C)[C@@H](O)[C@]1(C)O | 0.25 µg/mL (≈ 0.246 µM) | 0.12 µg/mL (≈ 0.118 µM) | 0.12 µg/mL (≈ 0.118 µM) | 32 µg/mL (≈ 31.4 µM) | 64 µg/mL (≈ 62.9 µM)
6 | CCc1nc2cc(C(=O)NNC(=O)O[C@H]3[C@H](C)O[C@@H](O[C@H]4[C@H](C)[C@@H](O[C@@H]5O[C@H](C)C[C@H](N(C)C)[C@H]5O)[C@](C)(OC)C[C@@H](C)C(=O)[C@H](C)[C@@H](O)[C@](C)(O)[C@@H](CC)OC(=O)[C@@H]4C)C[C@@]3(C)OC)ccc2[nH]1 | 0.5 µg/mL (≈ 0.511 µM) | 0.25 µg/mL (≈ 0.256 µM) | 0.12 µg/mL (≈ 0.123 µM) | 32 µg/mL (≈ 32.7 µM) | 64 µg/mL (≈ 65.4 µM)
7 | CCCc1nc2cc(C(=O)NNC(=O)O[C@H]3[C@H](C)O[C@@H](O[C@H]4[C@H](C)[C@@H](O[C@@H]5O[C@H](C)C[C@H](N(C)C)[C@H]5O)[C@](C)(OC)C[C@@H](C)C(=O)[C@H](C)[C@@H](O)[C@](C)(O)[C@@H](CC)OC(=O)[C@@H]4C)C[C@@]3(C)OC)ccc2[nH]1 | 0.25 µg/mL (≈ 0.252 µM) | 0.12 µg/mL (≈ 0.121 µM) | 0.12 µg/mL (≈ 0.121 µM) | 64 µg/mL (≈ 64.5 µM) | 64 µg/mL (≈ 64.5 µM)
8 | CC[C@H]1OC(=O)[C@H](C)[C@@H](O[C@H]2C[C@@](C)(OC)[C@@H](OC(=O)NNC(=O)c3ccc4[nH]c(C(C)C)nc4c3)[C@H](C)O2)[C@H](C)[C@@H](O[C@@H]2O[C@H](C)C[C@H](N(C)C)[C@H]2O)[C@](C)(OC)C[C@@H](C)C(=O)[C@H](C)[C@@H](O)[C@]1(C)O | 0.12 µg/mL (≈ 0.121 µM) | 0.12 µg/mL (≈ 0.121 µM) | 0.12 µg/mL (≈ 0.121 µM) | 16 µg/mL (≈ 16.1 µM) | 64 µg/mL (≈ 64.5 µM)
9 | CC[C@H]1OC(=O)[C@H](C)[C@@H](O[C@H]2C[C@@](C)(OC)[C@@H](OC(=O)NNC(=O)c3ccc4[nH]c(-c5cccc(Cl)c5O)nc4c3)[C@H](C)O2)[C@H](C)[C@@H](O[C@@H]2O[C@H](C)C[C@H](N(C)C)[C@H]2O)[C@](C)(OC)C[C@@H](C)C(=O)[C@H](C)[C@@H](O)[C@]1(C)O | 0.5 µg/mL (≈ 0.464 µM) | 0.03 µg/mL (≈ 0.0279 µM) | 0.25 µg/mL (≈ 0.232 µM) | 16 µg/mL (≈ 14.9 µM) | 32 µg/mL (≈ 29.7 µM)
